From patent US11673901B2, “Polycyclic compounds as allosteric SHP2 inhibitors” (Revolution Medicines, Inc., priority 2017, dated 2023)

molecular target: SHP2 (Homo sapiens (Human), UniProt Q06124); experiment: SHP2 allosteric inhibition assay (DiFMUP prompt fluorescence); assay type: biochemical; settings: 0.2 nM SHP2 activated with 0.5 μM Activating Peptide 1 or 2; substrate DiFMUP; Table 2, class symbols
Text: Without wishing to be bound by theory, SHP2 is allosterically activated through binding of bis-tyrosyl-phosphorylated peptides to its Src Homology 2 (SH2) domains. The latter activation step leads to the release of the auto-inhibitory interface of SHP2, which in turn renders the SHP2 protein tyrosine phosphatase (PTP) active and available for substrate recognition and reaction catalysis. The catalytic activity of SHP2 was monitored using the surrogate substrate DiFMUP in a prompt fluorescence assay format.
The phosphatase reactions were performed at room temperature in 96-well black polystyrene plate, flat bottom, non-binding surface (Corning, Cat #3650) using a final reaction volume of 100 μL and the following assay buffer conditions: 50 mM HEPES, pH 7.2, 100 mM NaCl, 0.5 mM EDTA, 0.05% P-20, 1 mM DTT.
The inhibition of SHP2 by compounds of the invention (concentrations varying from 0.00005-10 μM) was monitored using an assay in which 0.2 nM of SHP2 was incubated with 0.5 μM of Activating Peptide 1 (sequence: H2N-LN(pY)IDLDLV(dPEG8)LST(pY)ASINFQK-amide) or Activating Peptide 2 (sequence: H2N-LN(pY)AQLWHA(dPEG8)LTI(pY)ATIRRF-amide). After 30-60-minutes incubation at 25° C., the surrogate substrate DiFMUP (Invitrogen, Cat #D6567) was added to the reaction and activity was determined by a kinetic read using a microplate reader (Envision, Perkin-Elmer or Spectramax M5, Molecular Devices). The excitation and emission wavelengths were 340 nm and 450 nm, respectively. Initial rates were determined from a linear fit of the data, and the inhibitor dose response curves were analyzed using normalized IC50 regression curve fitting with control based normalization.

Sequence of SHP2 (Q06124 whole entry): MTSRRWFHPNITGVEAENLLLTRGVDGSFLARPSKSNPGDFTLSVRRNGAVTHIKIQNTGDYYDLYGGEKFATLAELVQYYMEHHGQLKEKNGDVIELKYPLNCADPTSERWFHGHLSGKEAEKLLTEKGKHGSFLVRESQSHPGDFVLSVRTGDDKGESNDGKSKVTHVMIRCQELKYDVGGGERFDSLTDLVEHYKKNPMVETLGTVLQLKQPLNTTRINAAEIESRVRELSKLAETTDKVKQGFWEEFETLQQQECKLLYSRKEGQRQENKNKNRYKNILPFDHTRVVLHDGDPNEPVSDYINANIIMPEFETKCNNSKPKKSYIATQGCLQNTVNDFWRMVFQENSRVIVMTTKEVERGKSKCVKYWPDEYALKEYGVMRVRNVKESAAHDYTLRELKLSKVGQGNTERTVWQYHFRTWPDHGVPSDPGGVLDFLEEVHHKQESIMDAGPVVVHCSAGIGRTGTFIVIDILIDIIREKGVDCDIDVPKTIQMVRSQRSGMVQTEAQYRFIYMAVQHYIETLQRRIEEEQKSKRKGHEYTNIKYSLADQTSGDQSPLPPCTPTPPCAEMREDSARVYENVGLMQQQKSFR

Cc1nc(N2CCC3(CC2)CO[C@@H](C)[C@H]3N)n2ccnc2c1-c1cc(Cl)cc2cc[nH]c12 [Compound 52, (3S,4S)-8-[8-(5-chloro-1H-indol-7-yl)-7-methylimidazo[1,2-c]pyrimidin-5-yl]-3-methyl-2-oxa-8-azaspiro[4.5]decan-4-amine] and Cc1nc(N2CCC3(CC2)CO[C@@H](C)[C@H]3N)n2ccnc2c1-c1ccnc2cc[nH]c12 [Compound 53, (3S,4S)-3-methyl-8-(7-methyl-8-{1H-pyrrolo[3,2-b]pyridin-7-yl}imidazo[1,2-c]pyrimidin-5-yl)-2-oxa-8-azaspiro[4.5]decan-4-amine] cannot be ordered by IC50: ≤ 50 nM for the first, ≤ 50 nM for the second.

Cc1nc(N2CCC3(CC2)CO[C@@H](C)[C@H]3N)n2ccnc2c1-c1ccc(O)c(Cl)c1Cl [Compound 54, 4-{5-[(3S,4S)-4-amino-3-methyl-2-oxa-8-azaspiro[4.5]decan-8-yl]-7-methylimidazo[1,2-c]pyrimidin-8-yl}-2,3-dichlorophenol] and Cc1nc(N2CCC3(CC2)CO[C@@H](C)[C@H]3N)n2ccnc2c1-c1cccc2c(F)c[nH]c12 [Compound 55, (3S,4S)-8-[8-(3-fluoro-1H-indol-7-yl)-7-methylimidazo[1,2-c]pyrimidin-5-yl]-3-methyl-2-oxa-8-azaspiro[4.5]decan-4-amine] cannot be ordered by IC50: ≤ 50 nM for the first, ≤ 50 nM for the second.

C[C@@H]1OCC2(CCN(c3ncc(-c4cccc(Cl)c4Cl)c4nccn34)CC2)[C@@H]1N [Compound 56, (3S,4S)-8-[8-(2,3-dichlorophenyl)imidazo[1,2-c]pyrimidin-5-yl]-3-methyl-2-oxa-8-azaspiro[4.5]decan-4-amine] and COc1cccc(-c2cnc(N3CCC4(CC3)CO[C@@H](C)[C@H]4N)n3ccnc23)c1Cl [Compound 57, (3S,4S)-8-[8-(2-chloro-3-methoxyphenyl)imidazo[1,2-c]pyrimidin-5-yl]-3-methyl-2-oxa-8-azaspiro[4.5]decan-4-amine] cannot be ordered by IC50: ≤ 50 nM for the first, 50 to 500 nM for the second.

C[C@@H]1OCC2(CCN(c3ncc(-c4ccnc(N)c4)c4nccn34)CC2)[C@@H]1N [Compound 58, (3S,4S)-8-[8-(2-aminopyridin-4-yl)imidazo[1,2-c]pyrimidin-5-yl]-3-methyl-2-oxa-8-azaspiro[4.5]decan-4-amine] and C[C@@H]1OCC2(CCN(c3ncc(-c4ccnc(N)c4Cl)c4nccn34)CC2)[C@@H]1N [Compound 60, (3S,4S)-8-[8-(2-amino-3-chloropyridin-4-yl)imidazo[1,2-c]pyrimidin-5-yl]-3-methyl-2-oxa-8-azaspiro[4.5]decan-4-amine] cannot be ordered by IC50: > 500 nM for the first, > 500 nM for the second.

Compared with C[C@@H]1OCC2(CCN(c3ncc(-c4ccnc5[nH]ccc45)c4nccn34)CC2)[C@@H]1N [Compound 59, (3S,4S)-3-methyl-8-(8-{1H-pyrrolo[2,3-b]pyridin-4-yl}imidazo[1,2-c]pyrimidin-5-yl)-2-oxa-8-azaspiro[4.5]decan-4-amine], C[C@@H]1OCC2(CCN(c3nc4[nH]nc(-c5cccc(Cl)c5Cl)c4c4nccn34)CC2)[C@@H]1N [Compound 83, (3S,4S)-8-[12-(2,3-dichlorophenyl)-3,6,8,10,11-pentaazatricyclo[7.3.0.0^2,6]dodeca-1(12),2,4,7,9-pentaen-7-yl]-3-methyl-2-oxa-8-azaspiro[4.5]decan-4-amine] is lower in IC50: > 500 nM for the first, ≤ 50 nM for the second.

First: Cc1nc(N2CCC3(CC2)CO[C@@H](C)[C@H]3N)n2cnnc2c1Sc1ccnc(N)c1Cl [Compound 61, (3S,4S)-8-{8-[(2-amino-3-chloropyridin-4-yl)sulfanyl]-7-methyl-[1,2,4]triazolo[4,3-c]pyrimidin-5-yl}-3-methyl-2-oxa-8-azaspiro[4.5]decan-4-amine]
Second: C[C@@H]1OCC2(CCN(c3cnc(Sc4ccnc(N)c4Cl)c4nccn34)CC2)[C@@H]1N [Compound 65, (3S,4S)-8-{8-[(2-amino-3-chloropyridin-4-yl)sulfanyl]imidazo[1,2-a]pyrazin-5-yl}-3-methyl-2-oxa-8-azaspiro[4.5]decan-4-amine]
The IC50 of the first is lower: ≤ 50 nM for the first, > 500 nM for the second. The first is the more potent here.

Cc1nc(N2CCC3(CC2)CC(N2CC(C#N)C2)C[C@H]3N)n2ccnc2c1-c1cccc(Cl)c1Cl (stereo partly drawn) [Compound 62, 1-[(4R)-4-amino-8-[8-(2,3-dichlorophenyl)-7-methylimidazo[1,2-c]pyrimidin-5-yl]-8-azaspiro[4.5]decan-2-yl]azetidine-3-carbonitrile] and CNC(=O)O[C@H]1C[C@@H](N)C2(CCN(c3nc(C)c(-c4cccc(Cl)c4Cl)c4nccn34)CC2)C1 [Compound 63, (2R,4R)-4-amino-8-[8-(2,3-dichlorophenyl)-7-methylimidazo[1,2-c]pyrimidin-5-yl]-8-azaspiro[4.5]decan-2-yl N-methylcarbamate] cannot be ordered by IC50: ≤ 50 nM for the first, ≤ 50 nM for the second.

First: COc1cccc(-c2c(C)nc(N3CCC4(CC3)C[C@@H](OC3COC3)C[C@H]4N)n3ccnc23)c1Cl [Compound 64, (2R,4R)-8-[8-(2-chloro-3-methoxy-phenyl)-7-methyl-imidazo[1,2-c]pyrimidin-5-yl]-2-(oxetan-3-yloxy)-8-azaspiro[4.5]decan-4-amine]
Second: CC1(O)CCN(c2ncc(Sc3ccnc(N)c3Cl)c3nccn23)CC1 [Compound 79]
The IC50 of the first is lower: ≤ 50 nM for the first, > 500 nM for the second.

NC(=O)CNc1ncc(Sc2ccnc(N)c2Cl)c2nccn12 [Compound 66, 2-({8-[(2-amino-3-chloropyridin-4-yl)sulfanyl]imidazo[1,2-c]pyrimidin-5-yl}amino)acetamide] and Nc1nccc(Sc2cnc(NCCO)n3ccnc23)c1Cl [Compound 73] cannot be ordered by IC50: > 500 nM for the first, > 500 nM for the second.

Nc1nccc(Sc2cnc(N3CCC[C@H]3CO)n3ccnc23)c1Cl [Compound 67] and Nc1nccc(Sc2cnc(N3CCC[C@@H]3CO)n3ccnc23)c1Cl [Compound 72] cannot be ordered by IC50: > 500 nM for the first, > 500 nM for the second.

Nc1nccc(Sc2cnc(N3CCOCC3)n3ccnc23)c1Cl [Compound 68] and Nc1nccc(Sc2cnc(N3CC[C@H](O)C3)n3ccnc23)c1Cl [Compound 76] cannot be ordered by IC50: > 500 nM for the first, > 500 nM for the second.

C[C@H](O)CNc1ncc(Sc2ccnc(N)c2Cl)c2nccn12 [Compound 74] and Nc1nccc(Sc2cnc(N[C@H]3CC[C@@H](O)C3)n3ccnc23)c1Cl [Compound 80] cannot be ordered by IC50: > 500 nM for the first, > 500 nM for the second.

Nc1nccc(Sc2cnc(N3CC(O)C3)n3ccnc23)c1Cl [Compound 75] and Nc1nccc(Sc2cnc(N3CC[C@@H](O)C3)n3ccnc23)c1Cl [Compound 77] cannot be ordered by IC50: > 500 nM for the first, > 500 nM for the second.

Nc1nccc(Sc2cnc(N3CCC(c4ncc[nH]4)CC3)n3ccnc23)c1Cl [Compound 78] and Nc1nccc(Sc2cnc(O[C@H]3CC[C@@H](N)C3)n3ccnc23)c1Cl [Compound 81, 4-[(5-{[(1S,3R)-3-aminocyclopentyl]oxy}imidazo[1,2-c]pyrimidin-8-yl)sulfanyl]-3-chloropyridin-2-amine] cannot be ordered by IC50: > 500 nM for the first, > 500 nM for the second.
